Series [1] in a line: Pro-apoptotic activity in human IGROV1-R10 cells assessed as accumulation at sub G1 phase at 15 uM incubated for 24 hrs in presence of ABT-737 by propidium iodide staining based flow cytometry analysis (reference value: 10.8% ). The series is classed as functional.
A short description of series [2]: Pro-apoptotic activity in human IGROV1-R10 cells assessed as accumulation at sub G1 phase at 10 uM incubated for 24 hrs in presence of ABT-737 by propidium iodide staining based flow cytometry analysis (reference value: 10.8% ). The series is classed as functional.
Series [3] in a line: Cytotoxicity against human AG1521 cells assessed as accumulation subG1 phase at 15 uM after 24 hrs by flow cytometry (reference value: 1.7%). The format is cell-based. The following applies: ag1521, 24 h. In general terms: A flow cytometer gives signals particle by particle.
Series [4] in a line: Pro-apoptotic activity in human IGROV1-R10 cells transfected with Bak and Bax siRNA assessed as accumulation at sub G1 phase at 15 uM incubated for 24 hrs by propidium iodide staining based flow cytometry analysis (reference value: 4.3%). The format is functional.
The subject of series [5] is IGROV1-R10. As to the kind of experiment: Pro-apoptotic activity in human IGROV1-R10 cells transfected with Bcl-xL siRNA assessed as increase in cleaved PARP expression at 25 uM measured after 24 hrs by Western blot analysis. The series is classed as functional, cell-based.
For series [6], the system named is IGROV1-R10. As to the kind of experiment: Pro-apoptotic activity in human IGROV1-R10 cells transfected with Bak siRNA assessed as condensed nuclei at 15 uM incubated for 24 hrs in presence of ABT-737 by DAPI staining based fluorescence microscopic analysis. The format is functional, cell-based.
For series [7], the target named is Induced myeloid leukemia cell differentiation protein Mcl-1 (Homo sapiens) (UniProt Q07820). Description: Inhibition of FAM-Bim peptide binding to MCL-1 in human MCF-7 cells assessed as disruption by BRET assay. The format is cell-based. The following applies: MCF7.
Chain of Induced myeloid leukemia cell differentiation protein Mcl-1 (Homo sapiens) (Q07820 whole entry): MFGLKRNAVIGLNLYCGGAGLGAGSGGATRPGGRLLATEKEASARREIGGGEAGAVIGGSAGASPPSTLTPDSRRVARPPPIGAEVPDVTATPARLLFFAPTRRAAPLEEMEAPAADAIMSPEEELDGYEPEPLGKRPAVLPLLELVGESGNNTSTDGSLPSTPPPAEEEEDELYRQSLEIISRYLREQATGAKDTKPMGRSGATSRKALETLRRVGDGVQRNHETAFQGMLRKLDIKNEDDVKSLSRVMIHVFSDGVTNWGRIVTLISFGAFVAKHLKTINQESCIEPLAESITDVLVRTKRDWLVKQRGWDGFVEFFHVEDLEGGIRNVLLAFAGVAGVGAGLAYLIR
The next series concerns A549. As to the kind of experiment: Pro-apoptotic activity in human A549 cells assessed as accumulation subG1 phase at 15 uM after 24 hrs by flow cytometry (reference value: 2.5%). The series is classed as functional.
Series [8] is described as follows: Cytotoxicity against human AG1521 cells assessed as accumulation subG1 phase at 15 uM after 24 hrs in presence of ABT-737 by flow cytometry (reference value: 1.64%). The series is classed as cell-based. The settings on record: ag1521, 24 h.

Each structure is given as a SMILES string. The source made the active and inactive calls. The rule behind the calls is not given here.

Regarding `Cc1cc(-c2ncc(-c3cccnc3)cc2/C=C/c2ccccc2)cnc1-c1cccc(C/C(N)=N/O)c1`, the Activity was 57.43% in series [1]; 34.3% in [2]; 1.98% in series [3]; 6% in series [4]; 12.93% in the series on A549; 3.33% in [8]. Also, the result in the series with IGROV1-R10 [5] was Active. Further, in the series with IGROV1-R10 [6], the result was inactive. In series [7], the inhibition result is “Active”.
